Where a name gives a salt, the structure may show the parent alone.
Each compound was assayed against T1, human GPR4 (Homo sapiens, UniProt P46093) (assay: Cell-based assay for human GPR4 activity (pH-induced cAMP formation, HTRF)). Conditions: HeLa cells stably expressing human GPR4, pH-induced cAMP formation.
T1 construct: expressed in transfected cells
Outline: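 HeLa cells stably expressing human GPR4, pre-incubated 15 min at room temperature with compound in pH 8 buffer containing 2 mM IBMX. Buffer B added to set the final stimulation pH, then a further 15 min at room temperature; cAMP read by HTRF.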

T1 sequence (P46093 whole entry): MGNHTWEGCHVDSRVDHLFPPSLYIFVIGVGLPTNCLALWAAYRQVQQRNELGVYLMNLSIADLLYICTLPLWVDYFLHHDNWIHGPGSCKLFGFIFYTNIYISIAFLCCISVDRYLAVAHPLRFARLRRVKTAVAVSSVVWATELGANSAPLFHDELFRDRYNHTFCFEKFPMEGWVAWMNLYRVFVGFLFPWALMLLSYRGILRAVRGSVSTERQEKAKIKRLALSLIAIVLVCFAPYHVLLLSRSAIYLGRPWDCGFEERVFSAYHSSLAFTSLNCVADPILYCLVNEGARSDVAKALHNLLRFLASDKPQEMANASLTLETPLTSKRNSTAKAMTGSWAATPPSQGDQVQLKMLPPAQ

Row | Compound | IC50 [nM]
1 | CCc1nc2c(C)cc(C)nc2n1Cc1ccc(/C=C/CN2CCC(N3CCCCC3)CC2)cc1 [Example 33, 1′-{(E)-3-[4-(2-Ethyl-5,7-dimethyl-imidazo[4,5-b]pyridin-3-ylmethyl)-phenyl]-allyl}-[1,4′]bipiperidinyl dihydrochloride] | 71
2 | CCc1nc2c(C)cc(C)nc2n1Cc1ccc(/C=C/CN2CCN(CCCOC)CC2)cc1 [Example 64, 2-Ethyl-3-(4-{(E)-3-[4-(3-methoxy-propyl)-piperazin-1-yl]-propenyl}-benzyl)-5,7-dimethyl-3H-imidazo[4,5-b]pyridine dihydrochloride] | 367
3 | CCc1nc2c(C)cc(C)nc2n1Cc1ccc(/C=C/CN2CCN(CCN(CC)CC)CC2)cc1 [Example 60, Diethyl-[2-(4-{(E)-3-[4-(2-ethyl-5,7-dimethyl-imidazo[4,5-b]pyridin-3-ylmethyl)-phenyl]-allyl}-piperazin-1-yl)-ethyl]-amine hydrochloride] | 995
4 | CCc1nc2c(C)cc(C)nc2n1Cc1ccc(CCCN2CCN(C3CCCC3)CC2)cc1 [Example 18, 3-{4-[3-(4-Cyclopentyl-piperazin-1-yl)-propyl]-benzyl}-2-ethyl-5,7-dimethyl-3H-imidazo[4,5-b]pyridine] | 186
5 | CCc1nc2c(C)cc(C)nc2n1Cc1ccc(/C=C/CN2CCN(CC(=O)N(C)C)CC2)cc1 [Example 65, 2-(4-{(E)-3-[4-(2-Ethyl-5,7-dimethyl-imidazo[4,5-b]pyridin-3-ylmethyl)-phenyl]-allyl}-piperazin-1-yl)-N,N-dimethyl-acetamide] | 647
6 | CCc1nc2c(C)cc(C)nc2n1Cc1ccc(CCCN2CCN(C(C)(C)C)CC2)cc1 [Example 12, 3-{4-[3-(4-tert-Butyl-piperazin-1-yl)-propyl]-benzyl}-2-ethyl-5,7-dimethyl-3H-imidazo[4,5-b]pyridine] | 53
7 | CCc1nc2c(C)cc(C)nc2n1Cc1ccc(CCCN2C[C@H]3C[C@@H]2CN3CC(C)C)cc1 [Example 27, 2-Ethyl-3-{4-[3-((1R,4R)-5-isobutyl-2,5-diaza-bicyclo[2.2.1]hept-2-yl)-propyl]-benzyl}-5,7-dimethyl-3H-imidazo[4,5-b]pyridine dihydrochloride] | 411
8 | CCCC(C)N1CCN(C/C=C/c2ccc(Cn3c(CC)nc4c(C)cc(C)nc43)cc2)CC1 (stereo not drawn) [Example 54, 2-Ethyl-5,7-dimethyl-3-(4-{(E)-3-[4-(1-methyl-butyl)-piperazin-1-yl]-propenyl}-benzyl)-3H-imidazo[4,5-b]pyridine dihydrochloride] | 166
9 | CCc1nc2c(C)cc(C)nc2n1Cc1ccc(/C=C/CN2CCC(c3c[nH]c4ccccc34)CC2)cc1 [Example 40, 2-Ethyl-3-(4-{(E)-3-[4-(1H-indol-3-yl)-piperidin-1-yl]-propenyl}-benzyl)-5,7-dimethyl-3H-imidazo[4,5-b]pyridine hydrochloride] | 704
10 | CCc1nc2c(C)cc(C)nc2n1Cc1ccc(/C=C/CN2CCN(C3CC3)CC2)cc1 [Example 47, 3-{4-[(E)-3-(4-Cyclopropyl-piperazin-1-yl)-propenyl]-benzyl}-2-ethyl-5,7-dimethyl-3H-imidazo[4,5-b]pyridine dihydrochloride] | 410
11 | CCc1nc2c(C)cc(C)nc2n1Cc1ccc(/C=C/CN2CCN(CCN(C)C)CC2)cc1 [Example 58, [2-(4-{(E)-3-[4-(2-Ethyl-5,7-dimethyl-imidazo[4,5-b]pyridin-3-ylmethyl)-phenyl]-allyl}-piperazin-1-yl)-ethyl]-dimethyl-amine trihydrochloride] | 255
12 | CCc1nc2c(C)cc(C)nc2n1Cc1ccc(/C=C/CN2CCC(OCC(=O)NC)CC2)cc1 [Example 38, 2-(1-{(E)-3-[4-(2-Ethyl-5,7-dimethyl-imidazo[4,5-b]pyridin-3-ylmethyl)-phenyl]-allyl}-piperidin-4-yloxy)-N-methyl-acetamide] | 718

Further lines, results first:

Row | IC50 [nM] | Compound
13 | 407 | CCc1nc2c(C)cc(C)nc2n1Cc1ccc(/C=C/CN2CCN(Cc3ccc(OC)c(OC)c3)CC2)cc1 [Example 67, 3-(4-{(E)-3-[4-(3,4-Dimethoxy-benzyl)-piperazin-1-yl]-propenyl}-benzyl)-2-ethyl-5,7-dimethyl-3H-imidazo[4,5-b]pyridine trihydrochloride]
14 | 887 | CCc1nc2c(C)cc(C)nc2n1Cc1ccc(/C=C/CN2CCN3CCCC3C2C)cc1 (stereo not drawn) [Example 73, 2-Ethyl-5,7-dimethyl-3-{4-[(E)-3-(1-methyl-hexahydro-pyrrolo[1,2-a]pyrazin-2-yl)-propenyl]-benzyl}-3H-imidazo[4,5-b]pyridine dihydrochloride]
15 | 191 | CCc1nc2c(C)cc(C)nc2n1Cc1ccc(/C=C/CCN2CCC(N3CCN(C)CC3)CC2)cc1 [Example 107, 2-Ethyl-5,7-dimethyl-3-{4-[(E)-4-[4-(4-methyl-piperazin-1-yl)-piperidin-1-yl]-but-1-enyl]-benzyl}-3H-imidazo[4,5-b]pyridine]
16 | 485 | CCc1nc2c(C)cc(C)nc2n1Cc1ccc(/C=C/Cn2ccnc2)cc1 [Example 80, 2-Ethyl-3-[4-((E)-3-imidazol-1-yl-propenyl)-benzyl]-5,7-dimethyl-3H-imidazo[4,5-b]pyridine hydrochloride]
17 | 512 | CCc1nc2c(C)cc(C)nc2n1Cc1ccc(/C=C/CN2CCOC(CNC(=O)OC(C)(C)C)C2)cc1 (stereo not drawn) [Example 77, (4-{(E)-3-[4-(2-Ethyl-5,7-dimethyl-imidazo[4,5-b]pyridin-3-ylmethyl)-phenyl]-allyl}-morpholin-2-ylmethyl)-carbamic acid tert-butyl ester]
18 | 445 | CCc1nc2c(C)cc(C)nc2n1Cc1ccc(/C=C/C(=O)N2CCC(N3CCCCC3)CC2)cc1 [Example 97, (E)-1-[1,4′]Bipiperidinyl-1′-yl-3-[4-(2-ethyl-5,7-dimethyl-imidazo[4,5-b]pyridin-3-ylmethyl)-phenyl]-propenone hydrochloride]
19 | 296 | Cc1cc(C)c2nc(C(F)(F)F)n(Cc3ccc(/C=C/CN4CCC(N5CCCCC5)CC4)cc3)c2n1 [Example 87, 1′-{(E)-3-[4-(5,7-Dimethyl-2-trifluoromethyl-imidazo[4,5-b]pyridin-3-ylmethyl)-phenyl]-allyl}-[1,4′]bipiperidinyl dihydrochloride]

What follows are compounds tested on mouse antigen-induced arthritis (assay: Mouse antigen-induced arthritis model). Conditions: female OFA-1 mice, 50 mg/kg (bid) po from day 0 for 7 days, R/L knee swelling ratio AUC vs control.
Assay type: in vivo
Experimental: c) GPR4 Activity in Mouse Antigen-Induced Arthritis Model
Female OFA-1 mice were sensitized i.d. on the back at two sites to methylated bovine serum albumin (mBSA) homogenize 1:1 with complete Freund's adjuvant on days—21 and —14 (0.1 ml containing 1 mg/ml mBSA). On day 0, the right knee receives 10 μl of 10 mg/ml mBSA in 5% glucose solution (antigen-injected knee), while the left knee receives 10 μl of 5% glucose solution alone (vehicle-injected knee). The diameters of the left and right knees were then measured using callipers immediately after the intra-articular injections and again on days 2, 4, 7, 9, 11 and 14. Vehicle and compounds were applied po starting at day 0 for 7 days. Right knee swelling was evaluated relative to left knee swelling, and the R/L knee swelling ratio plotted against time to give area under the curve (AUC) graphs for control and treatment groups. The percentage inhibition of the individual treatment group AUCs were calculated vs the control group AUC (0% inhibition) using an excel spreadsheet. On day 7, the mice were killed by CO2 inhalation and the right and left knees removed and processed for histological analysis.

Row | Compound | Δ swelling ratio [%]
20 | CCc1nc2c(C)cc(C)nc2n1Cc1ccc(/C=C/CN2CCC(N3CCCCC3)CC2)cc1 [Example 33, 1′-{(E)-3-[4-(2-Ethyl-5,7-dimethyl-imidazo[4,5-b]pyridin-3-ylmethyl)-phenyl]-allyl}-[1,4′]bipiperidinyl dihydrochloride] | 59

What follows are compounds tested on VEGF-induced angiogenesis (assay: GPR4 activity in VEGF-induced angiogenesis (angiogenesis growth factor implant model)). Conditions: mice, 10 mg/kg (qd) po, chamber tissue weighed on 4th day after implantation.
Assay type: in vivo
Experimental: The functional activity of GPR4 was determined in the angiogenesis growth factor implant model. Porous tissue chambers made of perfluoro-alkoxy-Teflon were filled with 0.8% agar and 20 U/ml heparin supplemented with or without 8 μg/ml recombinant human VEGF. The solutions were maintained at 39° C. prior to the filling procedure. Mice were anesthetized using 3% isoflurane inhalation. For subcutaneous implantation, a small skin incision was made at the base of the tail to allow the insertion of an implant trocar. The chamber was implanted under aseptic conditions through the small incision onto the back of the animal. The skin incision was closed by wound clips. On the 4th day after implantation, animals were sacrificed using CO2. Chambers were excised and the vascularized fibrous tissue formed around each implant carefully removed and weighed. Body weight was used to monitor the general condition of the mice. The compounds were applied po at the day of the chamber implantation.

Row | Compound | Δ tissue weight [%]
21 | CCc1nc2c(C)cc(C)nc2n1Cc1ccc(/C=C/CN2CCC(N3CCCCC3)CC2)cc1 [Example 33, 1′-{(E)-3-[4-(2-Ethyl-5,7-dimethyl-imidazo[4,5-b]pyridin-3-ylmethyl)-phenyl]-allyl}-[1,4′]bipiperidinyl dihydrochloride] | 45

— patent US20090291942A1, “IMIDAZO PYRIDINE DERIVATIVES” (priority 2008, published 2009)
